Laboratory results from article PMC4402584, “New Diterpenes from Cultures of the Fungus Engleromyces goetzii and Their CETP Inhibitory Activity” (Natural Products and Bioprospecting, 2015).

Molecular target: T1, cholesterol ester transfer protein (CETP) (Oryctolagus cuniculus, UniProt P22687)
T1 sequence (P22687 2-497): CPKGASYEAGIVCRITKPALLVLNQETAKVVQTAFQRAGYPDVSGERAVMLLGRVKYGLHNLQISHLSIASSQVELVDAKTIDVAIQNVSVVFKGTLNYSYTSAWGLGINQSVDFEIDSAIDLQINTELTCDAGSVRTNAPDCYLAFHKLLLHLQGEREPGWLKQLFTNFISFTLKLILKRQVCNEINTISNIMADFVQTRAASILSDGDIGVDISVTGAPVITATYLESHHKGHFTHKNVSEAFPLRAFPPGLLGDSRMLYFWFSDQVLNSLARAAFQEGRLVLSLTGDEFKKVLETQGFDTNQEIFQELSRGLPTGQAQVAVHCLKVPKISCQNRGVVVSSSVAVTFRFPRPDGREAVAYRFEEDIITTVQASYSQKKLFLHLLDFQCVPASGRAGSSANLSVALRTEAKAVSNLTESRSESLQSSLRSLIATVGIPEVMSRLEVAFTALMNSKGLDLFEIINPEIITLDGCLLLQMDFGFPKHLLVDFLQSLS
Assay: fluorescent neutral lipid transfer assay (BioVision CETP Inhibitor Screening Kit) with rabbit serum as CETP source
Format: biochemical

IC50: 7.55 µM
SMILES: C=C[C@@H]1C(=C)CC[C@H]2[C@H]1CC[C@@H]1[C@]2(C)C[C@@H](O)C[C@]1(C)C(=O)O [compound 1, engleromycenolic acid A]
